Columns and labels:
HIV-1JR-FL = assay: Viral infection assay, recombinant HIV-1 pseudotyped with JR-FL Env (wild type and mutants), Cf2Th-CD4/CCR5 cells; assay type: cell-based; details: for IC50: Example 8 table, read-out: IC50 (JR-FL); for Therapeutic Index (TI): calculated from IC50 against JR-FL and A-MLV
Text: HIV-1 Env mutants. Mutations were introduced into the plasmid expressing the fulllength HIV-1YU2 or HIV-1JR-FL Envs using the QuikChange II site-directed mutagenesis protocol or the QuikChange multi site-directed mutagenesis kit (Stratagene). The presence of the desired mutations was confirmed by DNA sequencing. All HIV-1 Env residues are numbered based on alignment with the HXBc2 prototypic sequence, according to current convention.
(§1) Production of recombinant HIV-1 expressing luciferase. […] After 48 hours, the supernatant was collected, buffered with 50 mM Hepes pH 7.4 (final concentration) and centrifuged for 5 minutes at 750×g and 4° C. The virus-containing supernatant was used directly or frozen at −80° C.
(§2) Viral infection assay. Each test compound was serially diluted in DMSO in a 96-well B&W isoplate (PerkinElmer, Boston, Mass.) using an HP D300 Digital Dispenser, to a final volume of 450 nl. DMSO was used as a control. Viruses pseudotyped with a specific Env were added to each well and incubated briefly at room temperature. Cf2Th-CD4/CCR5 cells were detached with StemPro Accutase Cell Dissociation Reagent (Invitrogen, cat #A11105-01), washed once, and 5000 cells were added to each well. […] Following incubation, the medium was aspirated and cells were lysed with 30 μl of Passive Lysis Buffer (Promega, cat #E1941). The activity of the firefly luciferase, which was used as a reporter protein in the system, was measured with a Centro LB 960 luminometer (Berthold Technologies, Oak Ridge, Tenn.). One hundred microliters of assay buffer (15 mM MgSO4, 15 mM KH2PO4/K2HPO4 pH 7.8, 1 mM ATP and 1 mM DTT) was injected to each well, followed by a 50 μl injection of 1 mM Dluciferin potassium salt (BD Pharmingen, San Jose, Calif.); luminescence was measured for 2 sec. Infection of PBMC was done as above, but 20,000-40,000 cells/well and viruses concentrated by ultracentrifugation were used. After four hours of incubation with viruses, the cells were centrifuged at 200×g for 6 minutes at 4° C., resuspended in 100 μl RPMI-PBMC medium and incubated at 37° C. for an additional 36-40 hours (total 40-44 hours). Supernatant was removed after centrifugation at 400×g for 5 minutes and cells were processed to detect luciferase activity, as described above.

[1] = tested on: amphotropic murine leukemia virus (A-MLV); assay: Viral infection assay, control virus with A-MLV envelope; assay type: cell-based; details: Example 8 table; read-out: IC50 (A-MLV)
Procedure: as §1, §2
The effect of 18A on viral infection was tested using recombinant HIV-1 pseudotyped with the envelope glycoproteins of different primate immunodeficiency viruses or the amphotropic murine leukemia virus (A-MLV) as a control.

Compound | IC50 (HIV-1JR-FL) | Therapeutic Index (TI) (HIV-1JR-FL) | IC50 [1]
O=C(N/N=C/c1cccc(O)c1O)Nc1cccc2nsnc12 [Compound 18A36] | 6.2 µM | 8.1 | 50.5 µM
COc1ccc(/C=N/NC(=O)Nc2cccc3nsnc23)c(O)c1 [Compound 18A58] | > 112 µM | – | > 112 µM
COc1cc(/C=N/NC(=O)Nc2cccc3nsnc23)cc(OC)c1OC [Compound 18A21] | > 112 µM | – | > 112 µM
COc1ccc(/C=N/NC(=O)Nc2cccc3nsnc23)c(Cl)c1OC [Compound 18A30] | > 112 µM | – | > 112 µM
O=C(N/N=C/c1ccc(Cn2cccn2)cc1)Nc1cccc2nsnc12 [Compound 18A52] | 3.4 µM | 11 | 37.3 µM
O=C(N/N=C/c1ccccc1)Nc1cccc2nsnc12 [Compound 18A13] | 16.9 µM | 4.4 | 75.2 µM
O=C(N/N=C/c1cccc(F)c1)Nc1cccc2nsnc12 [Compound 18A34] | 10.2 µM | 6.8 | 69.4 µM
O=C(N/N=C/c1ccc(O)c(Br)c1)Nc1cccc2nsnc12 [Compound 18A48] | > 112 µM | – | > 112 µM
COc1ccc(/C=N/NC(=O)Nc2cccc3nsnc23)cc1OC [Compound 18A5] | 5 µM | 5.1 | 25.9 µM
O=C(N/N=C/c1ccc(O)c(O)c1)Nc1cccc2nsnc12 [Compound 18A20] | 5.2 µM | 10.8 | 56.3 µM
O=C(N/N=C/c1cccc(O)c1)Nc1cccc2nsnc12 [Compound 18A19] | 6.6 µM | 7 | 46.2 µM
COc1ccc(/C=N/NC(=O)Nc2cccc3nsnc23)cc1 [Compound 18A1] | > 112 µM | – | > 112 µM
O=C(N/N=C/c1ccc(O)c([N+](=O)[O-])c1)Nc1cccc2nsnc12 [Compound 18A40] | 7.6 µM | >14.7 | > 112 µM
O=C(N/N=C/c1c(O)cc(O)cc1O)Nc1cccc2nsnc12 [Compound 18A17] | 24.8 µM | 2.6 | 64 µM
O=C(N/N=C/c1ccccc1O)Nc1cccc2nsnc12 [Compound 18A10] | ~0.7 µM | <1 | < 0.5 µM
O=C(N/N=C/c1cc(O)cc(O)c1)Nc1cccc2nsnc12 [Compound 18A49] | 13 µM | >8.6 | > 112 µM
COc1ccc(/C=N/NC(=O)Nc2cccc3nsnc23)c(OC)c1 [Compound 18A2] | 60 µM | 1.7 | 101 µM
COc1cc(/C=N/NC(=O)Nc2cccc3nsnc23)ccc1O [Compound 18A18] | 1.5 µM | 0.6 | 0.8 µM
COc1ccc(/C=N/NC(=O)Nc2cccc3nsnc23)cc1O [Compound 18A25] | 1.8 µM | 6.4 | 11.6 µM
Cc1cc(/C=N/NC(=O)Nc2cccc3nsnc23)cc(C)c1O [Compound 18A16] | 0.2 µM | 0.5 | 0.1 µM
O=C(N/N=C/c1ccc(O)c(Cl)c1)Nc1cccc2nsnc12 [Compound 18A32] | 4 µM | – | 19.2 µM

From patent publication US20170298056A1, “SMALL MOLECULE INHIBITORS OF HIV-1 ENTRY AND METHODS OF USE THEREOF” (Dana-Farber Cancer Institute, Inc., priority 2014, published 2017)
